Where a name gives a salt, the structure may show the parent alone. Read-outs that look alike come from different tables or passages of the source.
Columns and labels:
CK2 = CK2 (Homo sapiens, UniProt P68400); assay: CK2 inhibition, biochemical chemiluminescence holoenzyme assay (Kinase Glo, IC50 determination); details: Table 1 activity class; symbol given only if active; read-out: CK2 IC50 (Activity C)
Method in brief: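 Holoenzyme CK2 assay; compounds pre-incubated with substrate and enzyme, then reacted 150 min at 24-27° C. Remaining ATP measured as luminescence with Kinase Glo, and IC50 derived from the signal.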

CDC7 = CDC7 (Homo sapiens, UniProt O00311); assay: CDC7 inhibition, biochemical chemiluminescence assay (Kinase Glo, IC50 determination)
Method: Characterization of CDC7 Inhibition in a Biochemical Chemiluminesence Assay (IC50 Determination):
The IC50 evaluation of compounds against the CDC7 enzyme was performed in a Chemiluminesence assay utilizing a Greiner 384-well white binding plate format. […] Upon addition of 10 μL of CDC-7 (GB) to the designated well plates and subsequent incubation for ten minutes at ambient temperature, 10 μL of ATP mix in Tris Base was added. Following an incubation period of 90 minutes at ambient temperature (24-27° C.), 20 μL of Kinase Glo (Promega) was added to measure kinase activity by quantitating the amount of ATP remaining in solution. The luminescence was measured following a Luciferase Protocol on either EnVision or Victor plate readers.

[1] = biological target: PIM (PIM-1, PIM-2, and/or PIM-3); assay: PIM-1, PIM-2 and PIM-3 inhibition, biochemical chemiluminescence assays (Kinase Glo, IC50 determination); details: Table 1 activity class; PIM refers to PIM-1, PIM-2, and/or PIM-3; read-out: PIM IC50 (Activity B)
[2] = Table 1 activity class, symbol given only if active, read-out: CDC7 IC50 (Activity A)
[3] = compounds in Table 1, read-out: CDC7 IC50 value

CDC7, sequence (O00311 whole entry): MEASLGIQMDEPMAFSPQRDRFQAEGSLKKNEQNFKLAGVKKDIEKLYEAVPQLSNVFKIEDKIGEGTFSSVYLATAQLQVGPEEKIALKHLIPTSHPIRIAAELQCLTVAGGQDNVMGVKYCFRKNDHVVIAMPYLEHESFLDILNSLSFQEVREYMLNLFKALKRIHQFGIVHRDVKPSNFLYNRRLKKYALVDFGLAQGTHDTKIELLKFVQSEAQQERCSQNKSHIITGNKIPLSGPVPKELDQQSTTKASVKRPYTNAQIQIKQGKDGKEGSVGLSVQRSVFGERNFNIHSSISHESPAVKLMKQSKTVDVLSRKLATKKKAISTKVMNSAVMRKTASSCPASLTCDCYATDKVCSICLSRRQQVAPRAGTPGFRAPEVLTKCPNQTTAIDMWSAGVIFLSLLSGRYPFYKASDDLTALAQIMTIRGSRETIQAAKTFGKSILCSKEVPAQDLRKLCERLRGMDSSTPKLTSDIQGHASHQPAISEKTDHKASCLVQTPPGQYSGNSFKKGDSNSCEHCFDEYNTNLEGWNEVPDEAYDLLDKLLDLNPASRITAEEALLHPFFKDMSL
CDC7, sequence (Q9UBU7 whole entry partner): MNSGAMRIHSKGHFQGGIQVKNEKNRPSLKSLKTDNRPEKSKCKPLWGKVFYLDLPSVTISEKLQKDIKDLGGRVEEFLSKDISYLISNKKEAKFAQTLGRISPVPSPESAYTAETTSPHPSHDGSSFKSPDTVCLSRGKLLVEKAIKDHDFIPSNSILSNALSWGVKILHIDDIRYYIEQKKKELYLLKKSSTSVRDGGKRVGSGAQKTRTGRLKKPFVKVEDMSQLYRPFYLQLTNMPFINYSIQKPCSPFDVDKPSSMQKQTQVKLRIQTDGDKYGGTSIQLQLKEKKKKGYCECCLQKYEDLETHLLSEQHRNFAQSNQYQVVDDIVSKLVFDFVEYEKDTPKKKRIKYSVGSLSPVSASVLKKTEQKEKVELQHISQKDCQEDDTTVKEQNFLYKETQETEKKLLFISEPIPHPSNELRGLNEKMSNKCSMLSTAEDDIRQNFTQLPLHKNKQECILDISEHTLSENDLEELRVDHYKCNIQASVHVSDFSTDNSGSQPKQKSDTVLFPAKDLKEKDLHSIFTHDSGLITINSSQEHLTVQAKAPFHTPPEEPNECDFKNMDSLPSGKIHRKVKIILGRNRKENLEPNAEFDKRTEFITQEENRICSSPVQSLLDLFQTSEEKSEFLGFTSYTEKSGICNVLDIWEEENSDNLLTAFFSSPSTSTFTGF
CK2, sequence (P68400 whole entry): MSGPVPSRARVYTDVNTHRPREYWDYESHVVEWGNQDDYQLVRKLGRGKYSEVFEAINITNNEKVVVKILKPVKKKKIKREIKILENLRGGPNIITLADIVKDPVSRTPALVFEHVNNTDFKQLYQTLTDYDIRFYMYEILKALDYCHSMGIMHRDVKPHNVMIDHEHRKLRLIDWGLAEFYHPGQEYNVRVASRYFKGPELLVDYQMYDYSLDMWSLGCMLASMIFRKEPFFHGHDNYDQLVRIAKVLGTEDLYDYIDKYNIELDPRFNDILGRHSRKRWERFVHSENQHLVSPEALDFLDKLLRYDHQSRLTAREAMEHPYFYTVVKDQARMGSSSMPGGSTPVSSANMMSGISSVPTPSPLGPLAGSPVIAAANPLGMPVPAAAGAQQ
CK2, sequence (P67870 whole entry partner): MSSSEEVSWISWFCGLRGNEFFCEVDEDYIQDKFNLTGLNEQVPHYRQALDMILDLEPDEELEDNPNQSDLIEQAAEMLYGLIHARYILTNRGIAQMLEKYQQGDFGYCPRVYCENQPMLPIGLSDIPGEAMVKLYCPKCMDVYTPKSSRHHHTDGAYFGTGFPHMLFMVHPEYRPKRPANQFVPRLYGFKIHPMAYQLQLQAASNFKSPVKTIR

Compound | IC50 (CK2) | IC50 (CDC7; [2]) | IC50 [1] | IC50 (CDC7; [3]) | IC50 (CDC7; CDC7 IC50 (Activity A), Table 1 activity class, symbol given only if active)
O=c1[nH]c(C[C@H]2CCCNC2)nc2c1oc1ccc(Br)cc12 [Compound 315, 8-bromo-2-[(3R)-piperidin-3-ylmethyl][1]benzofuro[3,2-d]pyrimidin-4(3H)-one] | < 10 µM | < 10 µM | < 10 µM | – | –
O=C(Nc1ccc(-c2nc3c(oc4ccc(Br)cc43)c(=O)[nH]2)c(Cl)c1)C1CCNCC1 [Compound 161, N-[4-(8-bromo-4-oxo-3,4-dihydro[1]benzofuro[3,2-d]pyrimidin-2-yl)-3-chlorophenyl]piperidine-4-carboxamide] | < 10 µM | < 10 µM | < 10 µM | – | –
O=c1[nH]c([C@@H]2CCCN2)nc2c1oc1ccc(Cl)cc12 [Compound 507, 8-Chloro-2-[(2S)-pyrrolidin-2-yl][1]benzofuro[3,2-d]pyrimidin-4(3H)-one Hydrochloride] | < 10 µM | < 10 µM | < 10 µM | < 0.1 µM | –
O=c1[nH]c(-c2ccccc2-n2ccnc2)nc2c1oc1ccc(Br)cc12 [Compound 48, 8-bromo-2-[2-(1H-imidazol-1-yl)phenyl][1]benzofuro[3,2-d]pyrimidin-4(3H)-one] | < 10 µM | < 10 µM | < 10 µM | – | –
O=C(O)C1CN(Cc2nc3c(oc4ccc(Br)cc43)c(=O)[nH]2)C1 [Compound 370, 1-[(8-bromo-4-oxo-3,4-dihydro[1]benzofuro[3,2-d]pyrimidin-2-yl)methyl]azetidine-3-carboxylic acid] | < 10 µM | < 10 µM | < 10 µM | – | –
O=c1[nH]c(CN2CCC(F)(F)CC2)nc2c1oc1ccc(Br)cc12 [Compound 114, 8-bromo-2-[(4,4-difluoropiperidin-1-yl)methyl][1]benzofuro[3,2-d]pyrimidin-4(3H)-one] | < 10 µM | < 10 µM | < 10 µM | – | –
O=c1[nH]c(-c2cnc3cc(C4CCNCC4)nn3c2)nc2c1oc1ccc(Br)cc12 [Compound 377, 8-Bromo-2-(2-piperidin-4-ylpyrazolo[1,5-a]pyrimidin-6-yl)[1]benzofuro[3,2-d]pyrimidin-4(3H)-one] | < 10 µM | < 10 µM | < 10 µM | – | –
CC[C@@H](C)NCc1nc2c(oc3ccc(Br)cc32)c(=O)[nH]1 [Compound 519, 8-bromo-2-({[(1R)-1-methylpropyl]amino}methyl)[1]benzofuro[3,2-d]pyrimidin-4(3H)-one] | < 10 µM | < 10 µM | < 10 µM | < 0.1 µM | –
COc1ccc2oc3c(=O)[nH]c(CN4CC[C@H](O)C4)nc3c2c1 [Compound 451, 2-{[(3S)-3-hydroxypyrrolidin-1-yl]methyl}-8-(methyloxy)[1]benzofuro[3,2-d]pyrimidin-4(3H)-one] | < 10 µM | < 10 µM | < 10 µM | – | –
CN(C)CCNc1cc(-c2nc3c(oc4ccc(Br)cc43)c(=O)[nH]2)c(Cl)cn1 [Compound 283, 8-bromo-2-(5-chloro-2-{[2-(dimethylamino)ethyl]amino}pyridin-4-yl)[1]benzofuro[3,2-d]pyrimidin-4(3H)-one] | < 10 µM | < 10 µM | < 10 µM | – | –
O=C(Nc1ccc(-c2nc3c(oc4ccc(Br)cc43)c(=O)[nH]2)c(Cl)c1)c1ncco1 [Compound 373, N-[4-(8-bromo-4-oxo-3,4-dihydro[1]benzofuro[3,2-d]pyrimidin-2-yl)-3-chlorophenyl]-1,3-oxazole-2-carboxamide] | < 10 µM | < 10 µM | < 10 µM | – | –
O=c1c2oc3ccc(Br)cc3c2nc2n1CN1CCC[C@H]21 [Compound 452, (13bR)-11-bromo-1,2,3,13b-tetrahydro-7H-[1]benzofuro[3,2-d]pyrrolo[1′,2′:3,4]imidazo[1,5-a]pyrimidin-7-one] | < 10 µM | < 10 µM | < 10 µM | < 0.1 µM | –
O=c1[nH]c(-c2ccc(NCCC3CCCNC3)cc2Cl)nc2c1oc1ccc(Br)cc12 (stereo not drawn) [Compound 155, 8-bromo-2-{2-chloro-4-[(2-piperidin-3-ylethyl)amino]phenyl}[1]benzofuro[3,2-d]pyrimidin-4(3H)-one] | < 10 µM | < 10 µM | < 10 µM | – | –
CCC(C)N(C)Cc1nc2c(oc3ccc(Br)cc32)c(=O)[nH]1 (stereo not drawn) [Compound 518, 8-bromo-2-{[methyl(1-methylpropyl)amino]methyl}[1]benzofuro[3,2-d]pyrimidin-4(3H)-one] | < 10 µM | < 10 µM | < 10 µM | < 0.1 µM | –
O=c1[nH]c(CNC2CCCC2)nc2c1oc1ccc(Br)cc12 [Compound 199, 8-bromo-2-[(cyclopentylamino)methyl][1]benzofuro[3,2-d]pyrimidin-4(3H)-one] | < 10 µM | < 10 µM | < 10 µM | < 0.1 µM | –
C[Si](C)(C)C#Cc1ccc2oc3c(=O)[nH]c(CN4CC[C@H](O)C4)nc3c2c1 [Compound 459, 2-{[(3S)-3-hydroxypyrrolidin-1-yl]methyl}-8-[(trimethylsilyl)ethynyl][1]benzofuro[3,2-d]pyrimidin-4(3H)-one] | < 10 µM | – | < 10 µM | – | < 10 µM
O=c1[nH]c([C@H]2CCCN2)nc2c1oc1ccc(Br)cc12 [Compound 471, 8-bromo-2-[(2R)-pyrrolidin-2-yl][1]benzofuro[3,2-d]pyrimidin-4(3H)-one] | < 10 µM | < 10 µM | < 10 µM | < 0.1 µM | –
Cc1cc(Br)cc2c1oc1c(=O)[nH]c(CN3CC[C@H](O)C3)nc12 [Compound 434, 8-bromo-2-{[(3S)-3-hydroxypyrrolidin-1-yl]methyl}-6-methyl[1]benzofuro[3,2-d]pyrimidin-4(3H)-one] | < 10 µM | < 10 µM | < 10 µM | – | –
O=c1[nH]c(Nc2cccnc2)nc2c1oc1ccc(Br)cc12 [Compound 214, 8-bromo-2-(pyridin-3-ylamino)[1]benzofuro[3,2-d]pyrimidin-4(3H)-one] | < 10 µM | < 10 µM | < 10 µM | < 0.1 µM | –
CNc1cc(-c2nc3c(oc4ccc(Br)cc43)c(=O)[nH]2)c(Cl)cn1 [Compound 265, 8-bromo-2-[5-chloro-2-(methylamino)pyridin-4-yl][1]benzofuro[3,2-d]pyrimidin-4(3H)-one] | < 10 µM | < 10 µM | < 10 µM | – | –
Cn1ccnc1C(=O)Nc1ccc(-c2nc3c(oc4ccc(Br)cc43)c(=O)[nH]2)c(Cl)c1 [Compound 390, N-[4-(8-bromo-4-oxo-3,4-dihydro[1]benzofuro[3,2-d]pyrimidin-2-yl)-3-chlorophenyl]-1-methyl-1H-imidazole-2-carboxamide] | < 10 µM | < 10 µM | < 10 µM | – | –
O=c1[nH]c(CN2CC[C@H](O)C2)nc2c1oc1ccc3c(c12)OCO3 [Compound 476, 9-{[(3S)-3-hydroxypyrrolidin-1-yl]methyl}[1,3]dioxolo[4,5][1]benzofuro[3,2-d]pyrimidin-7(8H)-one] | < 10 µM | < 10 µM | < 10 µM | < 0.1 µM | –
Nc1cc(-c2nc3c(oc4ccc(Br)cc43)c(=O)[nH]2)c(Cl)cn1 [Compound 173, 2-(2-amino-5-chloropyridin-4-yl)-8-bromo[1]benzofuro[3,2-d]pyrimidin-4(3H)-one] | < 10 µM | < 10 µM | < 10 µM | < 0.1 µM | –

Source: patent US20090247559A1 (Exelixis, Inc., priority 2007, published 2009)
